# Laboratory results as given in patent publication EP0761222A1, “Use of orotic acid for the preparation of a medicament for amelioration of microcirculation” (WÖRWAG PHARMA GmbH, priority 1995, dated 1997).
# Assays:
# Type in all cases: in vivo
# Kaninchen [1] = experiment: Arteriosclerosis model under 2 % cholesterol diet, planimetric-photographic (density slice) and histological evaluation of vessels; conditions: 112 Tage 2 % cholesterol diet; for Index arteriosklerotischer Gefäßveränderungen (Gefäßverengungen): equimolar amounts, untreated control index 34,36, Fig. 1
# Description: (§1) In einer Versuchsreihe mit einem Arteriosklerose-Modell wurden Kaninchen über 112 Tage einer zweiprozentigen Cholesterindiät ausgesetzt und mit äquimolaren Mengen von` Magnesiumchlorid, Orotsäure und Magnesiumorotat bzw. in der Kontrollgruppe überhaupt nicht weiter behandelt. Zusätzlich zu histologischen Untersuchungen der Koronaarterien sowie der Aorta femoralis und renalis wurde der Zustand der Aorta an jeweils mehreren Stellen auch planimetrisch-photographisch dokumentiert. Mittels einer computergestützten, digitalen Methode der Oberflächenmessung ("density slice"-Methode) erhält man hierbei dreidimensionale Bilder, mit deren Hilfe auch eine Quantifizierung der cholesterininduzierten Lumeneinengungen möglich ist.
# Triathleten = experiment: Double-blind, randomised, placebo-controlled triathlon test, parameters of energy metabolism in blood; conditions: four weeks Magnesiumorotat 17 mmol/Tag
# Description: In einer doppelblinden, randomisierten und placebokontrollierten Studie wurden 23 Triathleten einem 500 m Schwimm-, 20 km Fahrrad- und 5.000 m Lauftest nach einer vierwöchigen Magnesiumorotat-Supplementierung von 17 mmol/Tag unterworfen. Die Tests wurden ohne Pausen direkt hintereinander absolviert. Vor dem Test, zwischen den Disziplinen und am Ende wurde den Probanden Blut entnommen und auf Parameter des Energiestoffwechsels untersucht.
# Kaninchen [2] = experiment: Coronary angiography in the arteriosclerosis model of Beispiel 2; conditions: cholesterol stress, untreated control developed Mikroangiopathien
# Description: as §1
# Zusätzlich zu den planimetrisch-photographischen Untersuchungen wurde bei der Versuchsreihe aus Beispiel 2 auch eine koronarangiographische Untersuchung vorgenommen.
# [3] = system: Patienten mit Durchblutungsstörungen; experiment: Effect of a single oral dose of Magnesiumorotat on flow properties of human blood, blood pressure and transcutaneous oxygen pressure
# Description: 10 Patienten mit Durchblutungsstörungen wurden 4 g Magnesiumorotat zusammen mit ca. 150 ml Wasser verabreicht. Die Blutentnahme erfolgte vor und im Abstand von 15, 30, 60, 120 und 180 Minuten nach der Tabletteneinnahme. Direkt vor jeder Blutentnahme wurden Blutdruck, Puls, der transkutane Sauerstoffdruck, der transkutane Kohlendioxiddruck und die Heizleistungsabweichung gemessen. Es wurden folgende Blutparameter untersucht: • Hämatokrit • BSC • Plasmaviskosität • Erythrozytenaggregation • Erythrozytenfiltrabilität.
# Es wurde eine Senkung des systemischen Druckes, insbesondere des systolischen Druckes, bis zum Zeitpunkt 60 Minuten nach Tablettenvergabe festgestellt. Die relative Plasmaviskosität erreicht 60 Minuten nach Tabletteneinnahme ihr Minimum mit anschließender Tendenz zur Normalisierung. In ähnlicher Weise verhält sich die Blutviskosität, die 30 Minuten nach Tabletteneinnahme ein Minimum aufweist.
# Besonders interessant sind die Veränderungen der transkutanen Sauerstoffdruckwerte, die im Bereich des Vorfußes abgenommen werden. Bei diesen Patienten mit einer chronisch-arteriellen Verschlußkrankheit sind die tcpO2-Werte bekannterweise nicht sonderlich erniedrigt. Die Ergebnisse der pO2-Werte zeigen doch, daß es zu einem Anstieg der pO2-Werte kommt, die zu dem Zeitpunkt 15 und 30 Minuten statistisch gesichert sind. Dieser Anstieg der tcpO2-Werte überrascht und beruht auf den verbesserten Fließeigenschaften des Blutes.
# Wistar-Ratten = experiment: Hypertension animal model (ROG-Modell, LG-Modell), malignant hypertension
# Description: In den Hypertonie-Tiermodellen nach Rojo-Ortega-Genest (ROG-Modell) und Lörincz-Goracz (LG-Modell) wird bei Wistar-Ratten die Aorta zwischen den beiden Renalarterien unterbunden bzw. die Niere in eine Gummimanschette fest eingepreßt, was einen malignen Hypertonus hervorruft, also eine Hypertonie mit konstanter Erhöhung des arteriellen diastolischen Blutdruckes auf > 120 mmHg.
# Das Ergebnis dieser Untersuchung ist in Fig. 2 dargestellt, wobei die dunklen Säulen jeweils den Beginn der ROG-Hypertonie anzeigen, während die hellen Säulen das Ende der ROG-Hypertonie darstellen. Links in Fig. 2 ist die ROG-Hypertonie ohne Behandlung gezeigt, während die beiden rechten Säulen den Verlauf der ROG-Hypertonie unter Zugabe von täglich 300 mg Magnesiumorotat wiedergibt.
SMILES,Index arteriosklerotischer Gefäßveränderungen (Gefäßverengungen) (Kaninchen [1]),"lumeneinengende Proliferation von Schaumzellen in den Koronarien (Kaninchen [1]; light/electron microscopy, enzyme histochemistry)","Insulinkonzentration (Triathleten; control group 139 ± 101 %, significant) [% der Anfangswerte]","Anstieg der Glukosekonzentration während des Tests (Triathleten; control group 187 ± 34 %, significantly lower) [%]",Wirkung bei Mikroangiopathien von kleinen und kleinsten Blutgefäßen am Herzen (Kaninchen [2]),"systemischer Druck, insbesondere systolischer Druck ([3]; 4 g Magnesiumorotat oral, single dose, 10 patients, until 60 Minuten after tablet intake)","Erythrozytenfiltrationswerte ([3]; 4 g Magnesiumorotat oral, 15-180 Minuten after intake)","transkutane Sauerstoffdruckwerte (tcpO2-Werte), Vorfuß ([3]; 4 g Magnesiumorotat oral, statistically confirmed at 15 and 30 Minuten)","Hämatokritwert ([3]; 4 g Magnesiumorotat oral, tendency to rise again at end of test)","Zeitpunkt des Minimums der Blutviskosität ([3]; 4 g Magnesiumorotat oral, time after tablet intake) [Minuten]","Zeitpunkt des Minimums der relativen Plasmaviskosität ([3]; 4 g Magnesiumorotat oral, time after tablet intake, then tendency to normalise) [Minuten]",Mikrozirkulation (Kapillarfluß an dem Nagelbett) ([3]; acute oral dose of 4 g Magnesiumorotat),"Blut- und Plasmaviskosität ([3]; acute oral dose of 4 g Magnesiumorotat, patients with arterial occlusive disease)","periarterielle Zellinfiltrationen und Herzmuskelzellausfälle (Wistar-Ratten; 300 mg Magnesiumorotat daily, compared with no treatment)","Blutdruck systolisch, Ende der ROG-Hypertonie (Wistar-Ratten; ROG-Modell, 300 mg Magnesiumorotat daily, untreated control animals 186 mmHg) [mmHg]","Blutdruck systolisch, Ausgangswert (Wistar-Ratten; ROG-Modell, start of ROG-Hypertonie, treated group, control 81 mmHg) [mmHg]"
"[Cl-].[Cl-].[Mg+2] [Magnesiumchlorid, reference compound]","22,63",–,–,–,–,–,–,–,–,–,–,–,–,–,–,–
O=C(O)c1cc(=O)[nH]c(=O)[nH]1 [Magnesiumorotat],"7,28",weitaus am geringsten ausgeprägt,65 ± 43,118 ± 45,präventive und therapeutische Wirkung,Senkung,zu keinem Zeitpunkt nach der oralen Gabe von Magnesiumorotat zu statistisch signifikanten Veränderungen,Anstieg,temporäre Abnahme,30,60,erheblich verbesserten,signifikant vermindert,weit weniger,152,79
O=C(O)c1cc(=O)[nH]c(=O)[nH]1 [Orotsäure],"9,77",–,–,–,präventive und therapeutische Wirkung,–,–,–,–,–,–,–,–,–,–,–
